Measured values reported in PubChem BioAssay AID192 (DTP/NCI, 2004).
“And” between values parts separate entries of the source, which are not always exact repeats. Equal entries are not always repeated. Inconclusive results and toxic doses are left out. The calls were made as follows: active = survival T/C of 150% or more; inactive = T/C below 125% in these data. Square brackets hold non-standard residues; d marks the D form. Peptide text beside a SMILES is read from it. * marks the point of attachment. ξ: configuration not given here. Boc = CC(C)(C)OC(=O)*; ξP = O=C(O)C1CCCN1

Test system: BDF1 mice, B16 melanoma ip, median survival T/C
Test: NCI In Vivo Anticancer Drug Screen. Data for tumor model B16 Melanoma (intraperitoneal) in B6D2F1 (BDF1) mice
Settings: endpoint: median survival time, higher = longer survival
How it was run: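 Transplantable tumor model; survival or tumor size measured; reported as T/C, treated over vehicle control.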

[1] = dose: 50.0 mg/kg/injection, schedule: Q01DX009 (ip), vehicle: saline
[2] = dose: 100.0 mg/kg/injection, schedule: Q01DX009 (ip), vehicle: saline
[3] = dose: 200.0 mg/kg/injection, schedule: Q01DX009 (ip), vehicle: saline
[4] = dose: 400.0 mg/kg/injection, schedule: Q01DX009 (ip), vehicle: saline
[5] = dose: 50.0 mg/kg/injection, schedule: Q01DX009 (ip), vehicle: saline with Tween-80
[6] = dose: 100.0 mg/kg/injection, schedule: Q01DX009 (ip), vehicle: saline with Tween-80
[7] = dose: 200.0 mg/kg/injection, schedule: Q01DX009 (ip), vehicle: saline with Tween-80
[8] = dose: 25.0 mg/kg/injection, schedule: Q01DX009 (ip), vehicle: Klucel (hydroxypropylcellulose) (HPC)
[9] = dose: 50.0 mg/kg/injection, schedule: Q01DX009 (ip), vehicle: Klucel (hydroxypropylcellulose) (HPC)
[10] = dose: 100.0 mg/kg/injection, schedule: Q01DX009 (ip), vehicle: Klucel (hydroxypropylcellulose) (HPC)
[11] = dose: 200.0 mg/kg/injection, schedule: Q01DX009 (ip), vehicle: Klucel (hydroxypropylcellulose) (HPC)
[12] = dose: 400.0 mg/kg/injection, schedule: Q01DX009 (ip), vehicle: Klucel (hydroxypropylcellulose) (HPC)
[13] = dose: 12.5 mg/kg/injection, schedule: Q01DX009 (ip), vehicle: saline with Tween-80
[14] = dose: 12.5 mg/kg/injection, schedule: Q01DX009 (ip), vehicle: Klucel (hydroxypropylcellulose) (HPC)
[15] = dose: 50.0 mg/kg/injection, schedule: Q04DX003 (ip), vehicle: saline with Tween-80
[16] = dose: 100.0 mg/kg/injection, schedule: Q04DX003 (ip), vehicle: saline with Tween-80

Measured: T/C

COC(=O)C1CCCN1C(=O)CNC(=O)OC(C)(C)C (stereo not drawn) (Boc-Gly-[ξP]-OMe)
inactive: [1] 94 % of control | [2] 103 % of control | [3] 91 % of control | [4] 88 % of control

ClCCOCOCCCl
inactive: dose: 20.0 mg/kg/injection, schedule: Q04DX003 (ip), vehicle: Klucel (hydroxypropylcellulose) (HPC) 101 % of control | dose: 40.0 mg/kg/injection, schedule: Q04DX003 (ip), vehicle: Klucel (hydroxypropylcellulose) (HPC) 89 % of control | dose: 80.0 mg/kg/injection, schedule: Q04DX003 (ip), vehicle: Klucel (hydroxypropylcellulose) (HPC) 102 % of control

CCOC(=O)N1c2ccccc2C=CC1OCC (stereo not given)
inactive: dose: 6.25 mg/kg/injection, schedule: Q04DX003 (ip), vehicle: Klucel (hydroxypropylcellulose) (HPC) 105 % of control | dose: 12.5 mg/kg/injection, schedule: Q04DX003 (ip), vehicle: Klucel (hydroxypropylcellulose) (HPC) 105 % of control | dose: 25.0 mg/kg/injection, schedule: Q04DX003 (ip), vehicle: Klucel (hydroxypropylcellulose) (HPC) 89 % of control and 105 % of control

COC(=O)/C(C)=C/C=C/C(OC)C(OC(N)=O)/C(C)=C/C(C)C(O)C(CC(C)CC1=C(N)C(=O)C=C(N)C1=O)OC (stereo not given)
inactive: dose: 12.5 mg/kg/injection, schedule: Q01DX005 (ip), vehicle: other 94 % of control | dose: 25.0 mg/kg/injection, schedule: Q01DX005 (ip), vehicle: other 95 % of control | dose: 50.0 mg/kg/injection, schedule: Q01DX005 (ip), vehicle: other 108 % of control | dose: 100.0 mg/kg/injection, schedule: Q01DX005 (ip), vehicle: other 93 % of control

CS(=O)(=O)OCC(=O)NCC(O)CNC(=O)COS(C)(=O)=O
inactive: [5] 109 % of control | [6] 104 % of control | [7] 115 % of control

O=C(NNCc1ccccc1)C(O)C(O)C(O)CO (stereo not given)
inactive: [8] 95 % of control | [9] 95 % of control | [10] 92 % of control | [11] 100 % of control | [12] 95 % of control

ClC1CC[N-]CC1.ClC1CC[N-]CC1.[Cl][Pt+2]([Cl])([Cl])[Cl]
inactive: dose: 3.13 mg/kg/injection, schedule: Q01DX009 (ip), vehicle: saline with Tween-80 104 % of control | dose: 6.25 mg/kg/injection, schedule: Q01DX009 (ip), vehicle: saline with Tween-80 104 % of control | [13] 117 % of control

C=Cc1c(C)c2cc3[nH]c(cc4nc(cc5nc(cc1[nH]2)C(C)=C5CCC(=O)O)C(CCC(=O)O)=C4C)c(C)c3C=C
inactive: dose: 6.25 mg/kg/injection, schedule: Q01DX009 (ip), vehicle: Klucel (hydroxypropylcellulose) (HPC) 97 % of control | [14] 104 % of control | [8] 104 % of control | [9] 101 % of control

Cc1ccc(NC(=O)c2ccccc2)c(C)c1
inactive: [5] 95 % of control | [15] 97 % of control | [6] 105 % of control | [16] 100 % of control | [7] 92 % of control | dose: 200.0 mg/kg/injection, schedule: Q04DX003 (ip), vehicle: saline with Tween-80 90 % of control

CCCC(CCC)(C(=O)OCC)C(=O)OCC
inactive: [10] 92 % of control | dose: 100.0 mg/kg/injection, schedule: Q04DX003 (ip), vehicle: Klucel (hydroxypropylcellulose) (HPC) 105 % of control | [11] 96 % of control | dose: 200.0 mg/kg/injection, schedule: Q04DX003 (ip), vehicle: Klucel (hydroxypropylcellulose) (HPC) 97 % of control | [12] 92 % of control | dose: 400.0 mg/kg/injection, schedule: Q04DX003 (ip), vehicle: Klucel (hydroxypropylcellulose) (HPC) 91 % of control

Clc1nc(SC2=NCCN2)c2[nH]cnc2n1
inactive: dose: 1.25 mg/kg/injection, schedule: Q01DX009 (ip), vehicle: saline with Tween-80 93 % of control | dose: 2.5 mg/kg/injection, schedule: Q01DX009 (ip), vehicle: saline with Tween-80 97 % of control | dose: 5.0 mg/kg/injection, schedule: Q01DX009 (ip), vehicle: saline with Tween-80 101 % of control | dose: 10.0 mg/kg/injection, schedule: Q01DX009 (ip), vehicle: saline with Tween-80 101 % of control and 103 % of control

COC(=O)C(C)CN1CCCCCC1 (stereo not given)
inactive: dose: 50.0 mg/kg/injection, schedule: Q04DX003 (ip), vehicle: saline 108 % of control | dose: 100.0 mg/kg/injection, schedule: Q04DX003 (ip), vehicle: saline 102 % of control | dose: 200.0 mg/kg/injection, schedule: Q04DX003 (ip), vehicle: saline 100 % of control

CCC1OC(=O)CC(O)C(C)C(OC2OC(C)C(O)C(N(C)C)C2O)C(CC=O)CC(C)C(=O)/C=C/C2(C)OC2C1C (stereo not given)
inactive: [14] 96 % of control | [8] 97 % of control | [9] 98 % of control | [10] 88 % of control

Br/C=C/C[N+]12CN3CN(CN(C3)C1)C2
inactive: dose: 12.5 mg/kg/injection, schedule: Q01DX009 (ip), vehicle: saline 117 % of control | dose: 25.0 mg/kg/injection, schedule: Q01DX009 (ip), vehicle: saline 103 % of control | [1] 110 % of control

NC(=O)OCCCc1ccccc1
inactive: [14] 100 % of control | [8] 94 % of control | [9] 100 % of control | [10] 107 % of control

CCN(CC)CCCC#CCN1CCOCC1
inactive: [1] 115 % of control | [2] 109 % of control | [3] 100 % of control

NC(=O)N1c2ccccc2C=Cc2ccccc21
inactive: [14] 112 % of control | [8] 100 % of control | [9] 106 % of control | [10] 91 % of control | [11] 90 % of control

O=C(O)CCc1cccnc1
inactive: [1] 104 % of control | [2] 107 % of control | [3] 106 % of control | [4] 107 % of control

CCCCN(CCCC)CCNc1ccc(Cl)c2oc3cc(C)ccc3c(=O)c12
inactive: [13] 100 % of control | dose: 25.0 mg/kg/injection, schedule: Q01DX009 (ip), vehicle: saline with Tween-80 93 % of control | dose: 25.0 mg/kg/injection, schedule: Q04DX003 (ip), vehicle: saline with Tween-80 105 % of control | [15] 92 % of control | [16] 86 % of control

COC(C/C=C\C=C\CC/C=C/CC(C)/C=C/C(=C\C(=O)O)CC(=O)O)/C(C)=C\C=C(/C)C(=O)O (stereo not given)
inactive: dose: 0.05 mg/kg/injection, schedule: Q01DX009 (ip), vehicle: saline 108 % of control | dose: 0.1 mg/kg/injection, schedule: Q01DX009 (ip), vehicle: saline 107 % of control | dose: 0.2 mg/kg/injection, schedule: Q01DX009 (ip), vehicle: saline 107 % of control | dose: 0.4 mg/kg/injection, schedule: Q01DX009 (ip), vehicle: saline 94 % of control

CC1OC(OCC2OC(Oc3c(-c4ccc(O)c(OS(=O)(=O)O)c4)oc4cc(O)cc(O)c4c3=O)C(O)C(O)C2O)C(O)C(O)C1O (stereo not given)
inactive: dose: 4.0 mg/kg/injection, schedule: Q01DX009 (ip), vehicle: saline 101 % of control | dose: 8.0 mg/kg/injection, schedule: Q01DX009 (ip), vehicle: saline 105 % of control | dose: 16.0 mg/kg/injection, schedule: Q01DX009 (ip), vehicle: saline 101 % of control | dose: 32.0 mg/kg/injection, schedule: Q01DX009 (ip), vehicle: saline 100 % of control | dose: 64.0 mg/kg/injection, schedule: Q01DX009 (ip), vehicle: saline 103 % of control

O=C(Nc1nccs1)Nc1ccccc1C(F)(F)F
inactive: [8] 103 % of control | [9] 99 % of control | [10] 97 % of control | [11] 103 % of control | [12] 99 % of control
